Measured values from patent US20060189546A1, “Compounds for treating autoimmune and demyelinating diseases” (priority 2005, published 2006).

Tested on: colorectal cancer cell lines (HT29 & HCT116)
Assay: Microarray gene expression, cells grown with Symadex at the GI50 concentration
Type: cell-based, human
Excerpt: Two colorectal cancer cell lines (HT29 & HCT116) were chosen for study, whose behavior as rapidly proliferating invasive cells could be generalized to many other such cell types from different tissue origins. The two lines were immortalized colon carcinomas. Their gene expression patterns are known to mimic the behavior of neuro-enteric cells and therefore provide an appropriate simulation of the kinds of regulatory patterns that would be found in cells of similar epithelial or endothelial origin. Cells with these ontological roots are also suitable models for the kinds of autoimmune and inflammatory susceptibilities that are common in tissues of neuroenteric origin, such as those in which inflammatory bowel disease would present itself.
Frozen cell pellets were lysed in triplicate and total RNA isolated by purification over spin columns (all reagents from Ambion). After QC acceptance for purity, total RNA was converted to cRNA by linear amplification and 10 μg samples were applied to CodeLink Human Whole Genome Bioarrays (GE Healthcare and GenUs Biosystems).
Arrays were processed in triplicate and comparisons made after robust statistical analysis of replicate variability. […] False discovery rates and representation in standardized gene ontologies/pathways were then determined by filtering the “fold” changes in expression with open access software packages, EASE and GoMiner, and with Pathways Analysis (Ingenuity Systems). Functional annotations were then explored further in the MedMiner literature search environment.
A listing of these is shown in Table 3, in which the first column data presents the fold change against control, the second column cites the gene symbol, the third column cites the Genbank Accession, and the fourth column provides an abridged description of the gene's function.

Structure (SMILES): CCN(CC)CCNc1ccc2ncn3c4ccc(O)cc4c(=O)c1c23 [Symadex™, 5-[[(diethylamino)ethyl]amino]-8-hydroxyimidazo[4,5,1-de]-acridine-6-one]
- Mean fold change over control: GGH (NM_003878): −1.96
- Mean fold change over control: MPZL1 (NM_003953): −2.04
- Mean fold change over control: C3AR1 (NM_004054): −15.52
- Mean fold change over control: EIF2S1 (NM_004094): −2.13
- Mean fold change over control: FEN1 (NM_004111): −2.87
- Mean fold change over control: SLC1A2 (NM_004171): −11.21
- Mean fold change over control: SLC9A3 (NM_004174): −15.57
- Mean fold change over control: SNRPD3 (NM_004175): −2.31
- Mean fold change over control: CDKL1 (NM_004196): −8.14
- Mean fold change over control: PTTG1 (NM_004219): −2.43
- Mean fold change over control: SLC22A13 (NM_004256): −11.51
- Mean fold change over control: BAG2 (NM_004282): −2.22
- Mean fold change over control: BAD (NM_004322): −2.08
- Mean fold change over control: ERH (NM_004450): −3.39
- Mean fold change over control: KCNQ2 (NM_004518): −24.13
- Mean fold change over control: MYBPC2 (NM_004533): −21.22
- Mean fold change over control: SPOCK (NM_004598): −6.57
- Mean fold change over control: NMI (NM_004688): −2.41
- Mean fold change over control: CCNB2 (NM_004701): −2.51
- Mean fold change over control: PDCD5 (NM_004708): −2.21
- Mean fold change over control: ZW10 (NM_004724): −2.31
- Mean fold change over control: DDX1 (NM_004939): −2.09
- Mean fold change over control: IBSP (NM_004967): −58.56
- Mean fold change over control: CCL23 (NM_005064): −12.99
- Mean fold change over control: COX6A2 (NM_005205): −23.19
- Mean fold change over control: GJB5 (NM_005268): −62.09
- Mean fold change over control: GPR15 (NM_005290): −80.43
- Mean fold change over control: GPR24 (NM_005297): −13.80
- Mean fold change over control: SULT1E1 (NM_005420): −10.91
- Mean fold change over control: RQCD1 (NM_005444): −2.38
- Mean fold change over control: ZNF265 (NM_005455): −2.03
- Mean fold change over control: STMN1 (NM_005563): −2.41
- Mean fold change over control: LCP2 (NM_005565): −11.85
- Mean fold change over control: VDAC3 (NM_005662): −2.22
- Mean fold change over control: D8S2298E (NM_005671): −1.88
- Mean fold change over control: SCAMP3 (NM_005698): −2.00
- Mean fold change over control: THOC4 (NM_005782): −3.41
- Mean fold change over control: KLRG1 (NM_005810): −24.24
- Mean fold change over control: DSCR1L1 (NM_005822): −9.75
- Mean fold change over control: MSLN (NM_005823): −17.46
- Mean fold change over control: SLC35B1 (NM_005827): −2.23
- Mean fold change over control: CD5L (NM_005894): −13.25
- Mean fold change over control: MCM6 (NM_005915): −1.97
- Mean fold change over control: MCM7 (NM_005916): −2.69
- Mean fold change over control: CD164 (NM_006016): −2.14
- Mean fold change over control: DLEU2 (NM_006021): −3.39
- Mean fold change over control: C10ORF7 (NM_006023): −2.11
- Mean fold change over control: NFATC1 (NM_006162): −16.69
- Mean fold change over control: TIMM23 (NM_006327): −2.02
- Mean fold change over control: PPIH (NM_006347): −2.49
- Mean fold change over control: SYNCRIP (NM_006372): −2.23
- Mean fold change over control: SSSCA1 (NM_006396): −2.20
- Mean fold change over control: RNASEH2A (NM_006397): −2.31
- Mean fold change over control: SIVA (NM_006427): −2.78
- Mean fold change over control: USP16 (NM_006447): −66.26
- Mean fold change over control: PAICS (NM_006452): −2.03
- Mean fold change over control: RPC62 (NM_006468): −2.22
- Mean fold change over control: PIR51 (NM_006479): −3.73
- Mean fold change over control: FARS1 (NM_006567): −2.11
- Mean fold change over control: RBBP9 (NM_006606): −8.81
- Mean fold change over control: NMU (NM_006681): −2.12
- Mean fold change over control: U2AF1 (NM_006758): −1.99
- Mean fold change over control: PRSS21 (NM_006799): −22.21
- Mean fold change over control: KIF2C (NM_006845): −2.52
- Mean fold change over control: CENTA1 (NM_006869): −19.89
- Mean fold change over control: TRH (NM_007117): −8.14
- Mean fold change over control: ZNF258 (NM_007167): −2.66
- Mean fold change over control: DUSP12 (NM_007240): −2.18
- Mean fold change over control: HSGT1 (NM_007265): −2.08
- Mean fold change over control: DTYMK (NM_012145): −3.07
- Mean fold change over control: TPSD1 (NM_012217): −13.71
- Mean fold change over control: TFEC (NM_012252): −20.30
- Mean fold change over control: RAD54B (NM_012415): −2.04
- Mean fold change over control: SPO11 (NM_012444): −14.75
- Mean fold change over control: TIMM10 (NM_012456): −2.23
- Mean fold change over control: UMPK (NM_012474): −1.92
- Mean fold change over control: HMMR (NM_012484): −2.94
- Mean fold change over control: DNAJD1 (NM_013238): −2.24
- Mean fold change over control: TAC3 (NM_013251): −12.26
- Mean fold change over control: RACGAP1 (NM_013277): −2.31
- Mean fold change over control: ALG5 (NM_013338): −2.71
- Mean fold change over control: ANAPC4 (NM_013367): −1.92
- Mean fold change over control: NRG1 (NM_013956): −17.54
- Mean fold change over control: SLC27A6 (NM_014031): −18.72
- Mean fold change over control: MRPL13 (NM_014078): −2.16
- Mean fold change over control: TMEM4 (NM_014255): −2.21
- Mean fold change over control: PLK4 (NM_014264): −2.39
- Mean fold change over control: ITGB3BP (NM_014288): −2.73
- Mean fold change over control: SULT4A1 (NM_014351): −293.18
- Mean fold change over control: ZNRD1 (NM_014596): −2.17
- Mean fold change over control: MEA (NM_014623): −2.39
- Mean fold change over control: DCLRE1A (NM_014881): −3.14
- Mean fold change over control: KIAA0089 (NM_015141): −7.23
- Mean fold change over control: RCOR1 (NM_015156): −7.09
- Mean fold change over control: ARL6IP (NM_015161): −2.29
- Mean fold change over control: EGFL6 (NM_015507): −28.71
- Mean fold change over control: GMNN (NM_015895): −2.81
- Mean fold change over control: MRPL11 (NM_016050): −2.97
- Mean fold change over control: MYO15A (NM_016239): −50.59
- Mean fold change over control: DNAJB11 (NM_016306): −2.15
- Mean fold change over control: POLR3K (NM_016310): −2.24
- Mean fold change over control: NR2E3 (NM_016346): −14.89
- Mean fold change over control: WWOX (NM_016373): −2.07
- Mean fold change over control: RNF141 (NM_016422): −2.29
- Mean fold change over control: POLA (NM_016937): −1.88
- Mean fold change over control: PDE11A (NM_016953): −16.85
- Mean fold change over control: MRPL39 (NM_017446): −2.20
- Mean fold change over control: LIMS2 (NM_017980): −57.61
- Mean fold change over control: FAIM (NM_018147): −3.32
- Mean fold change over control: LPAAT-E (NM_018361, first entry): −11.94
- Mean fold change over control: LPAAT-E (NM_018361, second entry): −2.40
- Mean fold change over control: SIAT7A (NM_018414): −11.76
- Mean fold change over control: LRP1B (NM_018557): −15.01
- Mean fold change over control: TCP11 (NM_018679): −9.82
- Mean fold change over control: BCAP29 (NM_018844): −2.17
- Mean fold change over control: GDAP1 (NM_018972): −2.44
- Mean fold change over control: ROBO4 (NM_019055): −11.95
- Mean fold change over control: POLE4 (NM_019896): −2.04
- Mean fold change over control: SARA1 (NM_020150): −2.14
- Mean fold change over control: RAD18 (NM_020165): −2.28
- Mean fold change over control: MRPL1 (NM_020236): −2.02
- Mean fold change over control: NUP107 (NM_020401): −2.68
- Mean fold change over control: KCNJ12 (NM_021012): −15.93
- Mean fold change over control: MRPL23 (NM_021134): −2.29
- Mean fold change over control: ATP2B3 (NM_021949): −9.43
- Mean fold change over control: NUCKS (NM_022731): −2.02
- Mean fold change over control: MIS12 (NM_024039): −2.20
- Mean fold change over control: SUV39H2 (NM_024670): −2.33
- Mean fold change over control: TXNDC (NM_030755): −2.13
- Mean fold change over control: PHAX (NM_032177): −2.17
- Mean fold change over control: PCDH7 (NM_032457): −19.65
- Mean fold change over control: GPR54 (NM_032551): −2.56
- Mean fold change over control: PHF5A (NM_032758): −2.95
- Mean fold change over control: SYNE1 (NM_033071): −1481.77
- Mean fold change over control: SLC7A13 (NM_138817): −27.75
- Mean fold change over control: BBS2 (T26496): −23.65
- number of down-regulated genes significantly represented in both cell types (array of 55,000 gene fragment accessions): 271
